Assay results: patent US11090391B2, “Protein nanocages with enhanced mucus penetration for targeted tissue and intracellular delivery” (The Johns Hopkins University, priority 2016, dated 2021)
“And” between values parts separate entries of the source, which are not always exact repeats. Equal values may be shown once.

Assays:
3LL cells = assay: Intracellular trafficking, confocal microscopy; type: cell-based, mouse
[1] = system: 3LL-based tumor spheroids; assay: Penetration of DOX formulations in tumor spheroids; type: cell-based, mouse; conditions: 10 μM DOX concentration
Description: (§1) Multicellular tumor spheroid models consisting of different cancer cell lines were prepared by modifying a previously reported protocol (Friedrich J, et al, Nature Protocols, 4:309-324 (2009)). Briefly, 50 μL DMEM medium containing 1.5% agarose (wt/vol) was plated onto each well of a 96-well microtiter plate under sterile conditions. After the agarose solidifies, the plates were stored at room temperature until use. For the penetration study, 5×10^3 cells were seeded onto the agarose-plated 96-well plates. After 4-5 days culture to obtain multicellular tumor spheroids (400-500 μm in diameter), the tumor spheroids were carefully transferred into glass bottom dishes. […] After the 2-hour incubation, the cells were observed using confocal microscopy with Z-stack imaging at ˜10 μm intervals. […] The 3D images of spheroids were reconstructed by ZEN microscopy software (Carl Zeiss). For analyzing the penetration distance, the radial intensity distribution profile was determined using a custom-made MATLAB code where αtumor is the radius of individual spheroids and r is the radial distance from the spheroid center (r/αtumor=0 and 1 indicate the center and edge of the tumor spheroid, respectively). […] Quantification analysis of signal intensity was performed with ImageJ software (NIH).
(§2) Multicellular tumor spheroids were prepared and post-treatment analyzed as described in Example 4.

[2] = system: 3LL cells stably expressing firefly luciferase (3LL-Luc); assay: In vitro cytotoxicity, luciferase activity; type: cell-based, mouse; conditions: 24 hour treatment
Description: Cytotoxicity was evaluated by optical imaging of luciferase expression. 3LL cells stably expressing firefly luciferase (3LL-Luc) were treated with various concentrations of PEG-FTn-DOX and DOX for 24 hour. After adding a D-luciferin solution, the bioluminescence imaging was acquired by a Xenogen IVIS Spectrum optical imaging system (Caliper Life Sciences). The luciferase activity was quantified to determine IC50 by fitting the data with nonlinear regression using GraphPad Prism.

[3] = system: 3LL-Luc orthotopic proximal lung cancer; assay: In vivo anti-cancer efficacy, orthotopic proximal lung cancer model; parameters: species or system mouse
Excerpt: To evaluate the efficacy of PEG-FTn-DOX for treating lung airway cancer, an aggressive orthotopic mouse model was established of proximal lung cancer in inbred mice with intact host immunity. The model was established via intratracheal intubation of cancer cells into the tracheal and bronchial epithelium of lung airways (DuPage M, et al., Nature protocols, 4:1064-1072 (2009)), which was relevant to small cell lung cancer and squamous-cell lung cancer. Briefly, female C57BL/6 mice (6-8 weeks) were inoculated with 2.5×10^4 3 LL-Luc cells in 50 μL of DMEM medium via intratracheal intubation using a 22 G×1″ Safelet catheter (Exel International). Three days after the inoculation, bioluminescence signal in the lung was observed using a Xenogen IVIS Spectrum optical imaging system. […] The tumor growth was monitored at various time points using an IVIS imaging system and the bioluminescence signal in lung at different time points was quantitatively analyzed by the Living Image® (Caliper Life Sciences) software. The survival of mice was recorded daily, and data was analyzed by Kaplan-Meier survival curve.
The luciferase activity of 3LL-Luc was visualized and quantified by a Xenogen IVIS Spectrum optical imaging system. In brief, mice were anesthetized with 2% isoflurane in O2 and received intraperitoneal injection of D-luciferin solution in PBS at a dose of 150 mg/kg. Serial images were acquired between 5 and 20 minutes after the D-luciferin administration, and the bioluminescence signal intensity was quantified by the Living Image® software.

Hif-1α = Hif-1α expression, western blotting in 3LL cells; type: cell-based, mouse; conditions: 0.625 to 2.5 μM AF, dose- and time-dependent
Description: The inhibition was dose-dependent, i.e., increasing the amount of AF in the free AF or that in […] from 0.625 μM to 1.25 μM, further to 2.5 μM, decreased the level of Hif-1α expression. The inhibition was also time-dependent, i.e., the inhibition was more prominent after a 6 hour-incubation than a 24 h-incubation, and even more prominent than a 48 h-incubation. Hif-1α, a marker for tumor hypoxia, is an indicator of cancer progression, metastasis, and drug resistance in clinic.

3LL subcutaneous tumor = assay: Tumor growth, 3LL subcutaneous tumor model, tail vein injection; type: in vivo; conditions: day 10, injections at days 0, 2, 4, 6, 8
Description: […] was injected at the tail vein to assay the effect on tumor growth in a 3LL subcutaneous tumor model at several time points (0, 2, 4, 6, and 8 days post tumor development). At day 10 post tumor development, the tumor volume was reduced in the animals treated with AF, as well as in the animals treated with […] treatment.

[4] = Physicochemical properties (hydrodynamic diameter, ζ-potential, drug loading)
Description: The DOX conjugated PEG-FTn is denoted as FTn/FTn-PEG2k/DOX. […] The mixture was incubated for 1 hour and 1.5 mg EDC was added to activate a carboxyl group of each DOX-linker conjugate. The resultant compounds were analyzed using high-performance liquid chromatography (HPLC, Varian Inc.) equipped with a C18 reverse phase column. […] The final product was extensively dialyzed (10 kDa MWCO; Thermo Scientific) and purified with a PD-10 column.

[5] = In vitro pH-sensitive DOX release, dialysis; type: physicochemical
Description: At designated times up to 6 days, 150 μL of solution outside the dialysis bag was collected and the same amount of fresh PBS was added back. After 3 days of incubation, the buffer was adjusted to pH 5.0 to induce the release of DOX from PEG-FTn. The concentrations of released free DOX at varying time points were measured by HPLC.

A549-based spheroids = assay: Penetration of DOX formulations in tumor spheroids; type: cell-based, human
Description: as §1, §2

H1975-based spheroids = assay: Penetration of DOX formulations in tumor spheroids; type: cell-based, human
Description: as §1, §2

H460-based spheroids = assay: Penetration of DOX formulations in tumor spheroids; type: cell-based, human
Description: as §1, §2

3LL tumor spheroids = assay: Growth delay of 3D cell spheroids; type: cell-based, mouse; conditions: 10 μM DOX, up to 11 days
Description: For cytotoxicity and growth delay experiments of 3D cell spheroids, 5×10^3 cells were seeded into the 96-well plates containing agarose. […] The diameters of tumor spheroids were recorded with a Zeiss Axiovert 200 phase-contrast microscope (Carl Zeiss) at the indicated time points.

[6] = single intratracheal dose 0.25 mg/kg, 11 days after treatment

Molecule: COc1cccc2c1C(=O)c1c(O)c3c(c(O)c1C2=O)C[C@@](O)(C(=O)CO)C[C@@H]3O[C@H]1C[C@H](N)[C@H](O)[C@H](C)O1 [DOX, doxorubicin, reference compound]
- intracellular localization of DOX (3LL cells; 2 hours after addition): primarily localized in the cell nuclei
- distribution in spheroids (3D confocal images) [1]: remained primarily at the periphery of the spheroids
- IC50 [2]: 480 nM
- median survival ([3]; single intratracheal dose 0.25 mg/kg): 18 days

Molecule: Acriflavine [AF]
- Hif-1α expression (Hif-1α): inhibited Hif-1α expression
- tumor volume (3LL subcutaneous tumor): reduced

Molecule: FTn/FTn-PEG2k/DOX: DOX conjugated to FTn/FTn-PEG2k via acid-sensitive cis-aconityl linker
- DOX molecules per PEG-FTn [4]: 88±5 and 88 ± 22
- Hydrodynamic diameter [4]: 15.3 ± 3.2 nm
- ζ-potential [4]: −7.4 ± 2.8 mV
- maximum release of DOX ([5]; pH 5.0, after 4 hours): ~80%
- DOX released ([5]; pH 7.4, over 3 days, 37° C.): negligible
- DOX found in cytoplasm compared with nucleus (3LL cells; 30 min after addition): ~95%
- DOX found in cytoplasm compared with nucleus (3LL cells; 2 h after addition): ~55%
- colocalization with lysosomes (3LL cells; 2 hours after addition): colocalized with lysosomes
- intracellular localization of DOX (3LL cells; 2 hours after addition): observed in both the cytoplasm and nucleus
- distribution in spheroids (3D confocal images) [1]: uniformly distributed throughout the entire tumor spheroid
- mean fluorescence signal intensity in the entire spheroid vs free DOX [1]: significantly greater
- penetration compared to free DOX (A549-based spheroids): Improved penetration
- penetration compared to free DOX (H1975-based spheroids): Improved penetration
- penetration compared to free DOX (H460-based spheroids): Improved penetration
- delay of spheroid growth compared to free DOX (3LL tumor spheroids): superior ability of delaying the growth
- progression-free survival ([3]; after 60 days): 60%
- decrease in bioluminescence signal intensity compared to free DOX-treated mice [3, 6]: 17 fold
- decrease in bioluminescence signal intensity compared to untreated mice [3, 6]: 40 fold
